Three compounds from article PMC10967822, “Antimicrobial Indole-3-Carboxamido-Polyamine Conjugates Target Bacterial Membranes and Are Antibiotic Potentiators” (Biomolecules, 2024) can be followed below.

≈ marks a conversion by molar mass, not a printed value.

For the first data set, the system named is MRSA ATCC 43300. Put plainly: MIC, broth microdilution (CO-ADD), MRSA. The class given is cell-based, methicillin-resistant S. aureus. The conditions noted are these: Staphylococcus aureus; MRSA ATCC 43300; top dose 32 µg/mL; read-out: MIC MRSA. (Broth dilution looks for growth in wells or tubes with falling amounts of substance.)
In general, MIC refers to the lowest concentration that inhibits growth of the organism. For `O=C(NCCCNCCCCCCCCCCNCCCNC(=O)c1c[nH]c2ccc(Br)cc12)c1c[nH]c2ccc(Br)cc12` [Compound 13e], the MIC is at most 0.26 µM.

As for `Cc1cccc2c(C(=O)NCCCNCCCCNCCCNC(=O)c3c[nH]c4c(C)cccc34)c[nH]c12` [Compound 18a], the minimum inhibitory concentration (MIC) is 21.5 µM (≈ 11.1 µg/mL).

The subject of a further data set is K. pneumoniae ATCC 700603. Put plainly: MIC, broth microdilution (CO-ADD), K. pneumoniae. To be noted: top dose 32 µg/mL.
For the compound `O=C(NCCCNCCCCCCCCCCNCCCNC(=O)c1c[nH]c2ccc(Br)cc12)c1c[nH]c2ccc(Br)cc12` [Compound 13e], the “MIC Kp” value is over 34 µM.

Take `Cc1cccc2c(C(=O)NCCCNCCCCNCCCNC(=O)c3c[nH]c4c(C)cccc34)c[nH]c12` [Compound 18a]: the “MIC Kp” value is over 43 µM.

Tested on in a further data set: not listed separately
Put plainly: Cytotoxicity assay (resazurin). To be noted: human, HEK293 cells, mean n = 2. The class given is cell-based. (In general: Alamar Blue is a resazurin reagent that responds to reducing activity.)
By IC50 is commonly meant the concentration that inhibits the measured activity by half. Read a low IC50 as greater potency in that assay. Take `O=C(NCCCNCCCCCCCCCCNCCCNC(=O)c1c[nH]c2ccc(Br)cc12)c1c[nH]c2ccc(Br)cc12` [Compound 13e]: the IC50 at 20 h was over 33 µM.

Regarding `Cc1cccc2c(C(=O)NCCCNCCCCNCCCNC(=O)c3c[nH]c4c(C)cccc34)c[nH]c12` [Compound 18a], the IC50 at 20 h is over 43 µM.

A further data set has as its system human red blood cells. Put plainly: Hemolytic assay. The class given is cell-based. To be noted: 10% hemolytic activity, mean n = 2. How it is done:
Human whole blood was washed three times with three volumes of 0.9% NaCl and then resuspended in the same solution to a concentration of 0.5 × 10^8 cells/mL, as determined by the manual cell count in a Neubauer hemocytometer. The washed cells were then added to the 384-well compound-containing plates for a final volume of 50 μL. After a 10 min shake on a plate shaker, the plates were then incubated for 1 h at 37 °C. After incubation, the plates were centrifuged at 1000× g for 10 min to pellet cells and debris; 25 μL of the supernatant was then transferred to a polystyrene 384-well assay plate. Hemolysis was determined by measuring the supernatant absorbance at […] (OD405). The absorbance was measured using a Tecan M1000 Pro monochromator plate reader. HC10 and HC50 (concentrations at 10% and 50% hemolysis, respectively) were calculated by a curve fitting the inhibition values vs. log (concentration) using a sigmoidal dose–response function with variable fitting values for the top, bottom, and slope.
Consider `O=C(NCCCNCCCCCCCCCCNCCCNC(=O)c1c[nH]c2ccc(Br)cc12)c1c[nH]c2ccc(Br)cc12` [Compound 13e], for which the “Hemolysis HC10” value is on record as over 33 µM.

As to `Cc1cccc2c(C(=O)NCCCNCCCCNCCCNC(=O)c3c[nH]c4c(C)cccc34)c[nH]c12` [Compound 18a], the “Hemolysis HC10” value is over 43 µM.

A further data set deals with E. coli ATCC 25922. The data set is described as follows: MIC, broth dilution, E. coli. It counts as cell-based, Escherichia coli. To be noted: Escherichia coli, ATCC25922; E. coli ATCC 25922, 18 h.
`O=C(NCCCNCCCCCCCCCCNCCCNC(=O)c1c[nH]c2ccc(Br)cc12)c1c[nH]c2ccc(Br)cc12` [Compound 13e] had an MIC of 52.2 µM (≈ 38.1 µg/mL).

As to `Cc1cccc2c(C(=O)NCCCNCCCCNCCCNC(=O)c3c[nH]c4c(C)cccc34)c[nH]c12` [Compound 18a], the minimal inhibitory concentration (MIC) is over 269 µM.

Another data set concerns E. coli ATCC 25922. The data set is described as follows: Erythromycin potentiation against E. coli. It counts as cell-based, Escherichia coli. To be noted: erythromycin at 2 µg/mL (2.7 µM), E. coli. The source says:
(§1) These measurements were independently repeated in triplicate.
As for `O=C(NCCCNCCCCCCCCCCNCCCNC(=O)c1c[nH]c2ccc(Br)cc12)c1c[nH]c2ccc(Br)cc12` [Compound 13e], the “Erythro/Ec fold-change (intrinsic MIC / combination MIC)” value is reported as 8 fold.

With `Cc1cccc2c(C(=O)NCCCNCCCCNCCCNC(=O)c3c[nH]c4c(C)cccc34)c[nH]c12` [Compound 18a], the “Erythro/Ec fold-change (intrinsic MIC / combination MIC)” value was found to be 1 fold.

The same data set, now with this note: erythromycin at 2 µg/mL (2.7 µM), mean n = 3.
As for `O=C(NCCCNCCCCCCCCCCNCCCNC(=O)c1c[nH]c2ccc(Br)cc12)c1c[nH]c2ccc(Br)cc12` [Compound 13e], the “Erythro/Ec: concentration required to restore erythromycin activity (combination MIC)” value amounted to 6.52 µM.

As for `Cc1cccc2c(C(=O)NCCCNCCCCNCCCNC(=O)c3c[nH]c4c(C)cccc34)c[nH]c12` [Compound 18a], the “Erythro/Ec: concentration required to restore erythromycin activity (combination MIC)” value was over 269 µM.

In a further data set the test system is C. albicans ATCC 90028. The data set is described as follows: Antifungal MIC (CO-ADD), C. albicans. The conditions noted are these: Candida albicans, ATCC90028, top dose 32 µg/mL. It counts as cell-based. On the procedure:
(§2) For the antifungal assay, fungi strains were cultured for 3 days on YPD agar at 30 °C. A yeast suspension of 1 × 10^6 to 5 × 10^6 CFU/mL was prepared from five colonies. These stock suspensions were diluted with a yeast nitrogen base (YNB) (Becton Dickinson, 233520, New South Wales, Australia) broth to a final concentration of 2.5 × 10^3 CFU/mL. […] The plates were covered and incubated at 35 °C for 36 h without shaking. C. albicans MICs were determined by measuring the absorbance at OD530. For C. neoformans, resazurin was added at a 0.006% final concentration to each well and incubated for a further 3 h before the MICs were determined by measuring the absorbance at OD570–600. […] Fluconazole was used as a positive fungal inhibitor standard for C. albicans and C. neoformans. […] The quality control (QC) of the assays was determined by the antimicrobial controls and the Z′-factor (using positive and negative controls).
`O=C(NCCCNCCCCCCCCCCNCCCNC(=O)c1c[nH]c2ccc(Br)cc12)c1c[nH]c2ccc(Br)cc12` [Compound 13e] displayed an MIC of 4.17 µM (≈ 3.05 µg/mL).

`Cc1cccc2c(C(=O)NCCCNCCCCNCCCNC(=O)c3c[nH]c4c(C)cccc34)c[nH]c12` [Compound 18a]: the MIC is over 43 µM.

On to `OC(Cn1cncn1)(Cn1cncn1)c1ccc(F)cc1F` [Fluconazole, reference compound], for which it took 0.4 µM (≈ 0.123 µg/mL) to inhibit growth (MIC).

For the next data set, the system named is C. neoformans ATCC 208821. Put plainly: Antifungal MIC (CO-ADD), C. neoformans. The class given is cell-based. To be noted: Cryptococcus neoformans, ATCC208821, top dose 32 µg/mL. On the procedure:
as §2
As to `O=C(NCCCNCCCCCCCCCCNCCCNC(=O)c1c[nH]c2ccc(Br)cc12)c1c[nH]c2ccc(Br)cc12` [Compound 13e], the MIC is at most 0.26 µM.

`OC(Cn1cncn1)(Cn1cncn1)c1ccc(F)cc1F` [Fluconazole, reference compound] registered an MIC of 26 µM (≈ 7.96 µg/mL).

For another data set, the system named is S. aureus ATCC 25923. Put plainly: MIC, broth dilution, S. aureus. The class given is cell-based, Staphylococcus aureus. The conditions noted are these: Staphylococcus aureus, ATCC25923; S. aureus ATCC 25923, 18 h; read-out: MIC Sa.
For the compound `O=C(NCCCNCCCCCCCCCCNCCCNC(=O)c1c[nH]c2ccc(Br)cc12)c1c[nH]c2ccc(Br)cc12` [Compound 13e], the MIC worked out at 3.26 µM (≈ 2.38 µg/mL).

`Cc1cccc2c(C(=O)NCCCNCCCCNCCCNC(=O)c3c[nH]c4c(C)cccc34)c[nH]c12` [Compound 18a]: the MIC was over 269 µM.

The subject of the next data set is P. aeruginosa ATCC 27853. Put plainly: Doxycycline potentiation against P. aeruginosa. The class given is cell-based, Pseudomonas aeruginosa. To be noted: doxycycline at 2 µg/mL (4.5 µM), P. aeruginosa ATCC 27853.
Description: as §1
For `O=C(NCCCNCCCCCCCCCCNCCCNC(=O)c1c[nH]c2ccc(Br)cc12)c1c[nH]c2ccc(Br)cc12` [Compound 13e], the “Dox/Pa fold-change (intrinsic MIC / combination MIC)” value came out at 4 fold.

For the compound `Cc1cccc2c(C(=O)NCCCNCCCCNCCCNC(=O)c3c[nH]c4c(C)cccc34)c[nH]c12` [Compound 18a], the “Dox/Pa fold-change (intrinsic MIC / combination MIC)” value is recorded as 1 fold.

The same data set, now with this note: doxycycline at 2 µg/mL (4.5 µM), P. aeruginosa ATCC 27853, mean n = 3.
Take `O=C(NCCCNCCCCCCCCCCNCCCNC(=O)c1c[nH]c2ccc(Br)cc12)c1c[nH]c2ccc(Br)cc12` [Compound 13e]: the “Dox/Pa: concentration required to restore doxycycline activity (combination MIC)” value was determined as 26.1 µM.

`Cc1cccc2c(C(=O)NCCCNCCCCNCCCNC(=O)c3c[nH]c4c(C)cccc34)c[nH]c12` [Compound 18a]: the “Dox/Pa: concentration required to restore doxycycline activity (combination MIC)” value is 269 µM.

The next data set deals with A. baumannii ATCC 19606. Put plainly: MIC, broth microdilution (CO-ADD), A. baumannii. It counts as cell-based, Acinetobacter baumannii. The conditions noted are these: Acinetobacter baumannii, ATCC19606, top dose 32 µg/mL.
On to `O=C(NCCCNCCCCCCCCCCNCCCNC(=O)c1c[nH]c2ccc(Br)cc12)c1c[nH]c2ccc(Br)cc12` [Compound 13e], for which the minimum inhibitory concentration (MIC) turned out to be 16.7 µM (≈ 12.2 µg/mL).

`Cc1cccc2c(C(=O)NCCCNCCCCNCCCNC(=O)c3c[nH]c4c(C)cccc34)c[nH]c12` [Compound 18a] yielded an MIC of over 43 µM.

The test system of another data set is P. aeruginosa ATCC 27853. The data set is described as follows: MIC, broth dilution, P. aeruginosa. The class given is cell-based, Pseudomonas aeruginosa. The conditions noted are these: Pseudomonas aeruginosa, ATCC27853; P. aeruginosa ATCC 27853, 18 h; read-out: MIC Pa.
For `O=C(NCCCNCCCCCCCCCCNCCCNC(=O)c1c[nH]c2ccc(Br)cc12)c1c[nH]c2ccc(Br)cc12` [Compound 13e], the MIC is 104 µM (≈ 76 µg/mL).

As for `Cc1cccc2c(C(=O)NCCCNCCCCNCCCNC(=O)c3c[nH]c4c(C)cccc34)c[nH]c12` [Compound 18a], the MIC was found to be 269 µM (≈ 139 µg/mL).
